Tested on: lactate dehydrogenase A (LDHA); measured as cellular LDH activity
Assay: LDH activity
Format: cell-based

With NCI-737 the IC50 was ~100 nM.
